Measured values published in patent US6552011B1, “(Androst-5-en-17beta -yl)alkyl sulfoxides and sulfones and their use for control of fertility” (Akzo Nobel NV, priority 1999, dated 2003).

Legend:
Assay type in all cases: cell-based, mice (B6D2-F1, strain C57BL×DBA)
denuded oocytes (DO) [1] = assay: Oocyte assay, agonistic testing, DO assay (overcoming hypoxanthine maintained meiotic arrest); conditions: hypoxanthine 4 mM medium, 22 hours culture, number in brackets = control
From the text: Oocytes arrested in meiosis contain diffused chromosomes which are surrounded by an intact nuclear envelope known as the germinal vesicle (GV). Upon reinitiation of meiosis by the midcycle gonadotropin surge, the chromosomes recondense and the GV breaks down (GVBD). In vivo, the oocyte is exposed to hypoxanthine (HX), which maintains the oocyte arrested in the meiotic prophase. This meiotic arrest can be mimicked in vitro by addition of hypoxanthine to the culture medium. The agonistic activity of meiosis activating substances is measured as the ability to overcome the hypoxanthine maintained meiotic arrest in denuded oocytes (DO) or cumulus enclosed oocytes (CEO), i.e. as the ability to induce meiotic resumption in vitro.
(§1) Ovaries are obtained from immature female mice (B6D2-F1, strain C57BL×DBA). At the age of 19, 20 or 21 days the mice are injected subcutaneously with a single dose of 20 IU follicle stimulating hormone (Humegon, Organon, The Netherlands) in saline.
Forty-eight hours after follicle stimulating hormone injection mice are killed by cervical dislocation. The ovaries are removed, freed of extraneous tissue and placed in a multidish containing 0.5 ml preparation medium at 37° C. L-15 Leibovitz medium (Gibco, pH 7.3±0.1) supplemented with bovine serum albumin (3 mg.ml^−1), L-glutamine (0.23 mM), sodium pyruvate (2 mM) and hypoxanthine (4 mM) is used as preparation medium. The antral follicles of the ovaries are punctured under a dissecting microscope using two 27-gauge needles attached to two 1 ml syringes. Cumulus enclosed oocytes (CEO) of uniform size are selected with a mouth-controlled pipette and rinsed in 0,5 ml fresh preparation medium. About 20 CEO are obtained from one ovary.
Oocytes freed from cumulus cells, i.e. denuded oocytes (DO), are obtained by gently flushing CEO through a fine-bore mouth-controlled pipette. DO were collected in fresh MEM alpha medium, containing bovine serum albumin (3 mg.ml^−1), L-glutamine (0.23 mM), sodium pyruvate (2 mM) and hypoxanthine (4 mM), and washed twice before transfer to the test medium.
(§2) The oocyte assay is performed in 3 blocks, each block represents the ovaries of one mouse (randomized block design). […] At t=0 the number of oocytes with intact germinal vesicles (GV) or germinal vesicle break-down (GVBD) is counted under an inverted microscope with differential interference contrast equipment. […] At the end of the culture period the number of oocytes with GV or GVBD per group is counted. For statistical analysis the percentage germinal vesicle breakdown is calculated for each group in one block. These percentages are subjected to arcsin transformation, and differences between control and test compounds are analyzed by an ANOVA test for a randomized block design. […]

denuded oocytes (DO) [2] = assay: Oocyte assay, antagonistic testing, DO assay (inhibition of FF-Mas induced oocyte maturation); conditions: FF-Mas 5 μM, compound 5 μM, hypoxanthine 4 mM medium, 22 hours culture, number in brackets = control (FF-Mas alone)
Description: (§3) The meiosis inhibiting activity of the (androst-5-en-17β-yl)alkyl sulfoxides and sulfones of the invention is measured in an in vitro oocyte assay as the ability to inhibit the FF-Mas or 22S-hydroxy-FF-Mas induced maturation, in hypoxanthine media, in denuded oocytes (DO) or cumulus enclosed oocytes (CEO), respectively. The compounds can be used to inhibit meiosis in both male and female and thus can be used as contraceptive agents.
(§4) Natural resumption of meiosis can be mimicked in vitro by addition of FF-Mas or other agonists to the culture medium containing hypoxanthine. The antagonistic activity of the compounds is measured as the ability to inhibit the FF-Mas or 22S-hydroxy-FF-Mas induced oocyte maturation in denuded oocytes or cumulus enclosed oocytes, respectively, in vitro.
as §1
Forty-eight hours after follicle stimulating hormone injection mice are killed by cervical dislocation. The ovaries are removed, freed of extraneous tissue and placed in a multidish containing 0.5 ml preparation medium at 37° C. L-15 Leibovitz medium (Gibco, pH 7.3±0.1) supplemented with bovine serum albumin (3 mg.ml^−1), L-glutamine (0.23 mM), sodium pyruvate (2 mM) and hypoxanthine (4 mM) is used as preparation medium. […]
as §2, with “block.” for “block. These percentages are subjected to arcsin transformation, and differences between control and test compounds are analyzed by an ANOVA test for a randomized block design.”

[3] = test system: cumulus enclosed oocytes (CEO); assay: Oocyte assay, antagonistic testing, CEO assay (inhibition of 22S-hydroxy-FF-Mas induced oocyte maturation); conditions: 22S-hydroxy-FF-Mas 5 μM, hypoxanthine 4 mM medium, 22 hours culture, number in brackets = control (22S-hydroxy-FF-Mas alone)
Description: as §3, §4, §1
Forty-eight hours after follicle stimulating hormone injection mice are killed by cervical dislocation. The ovaries are removed, freed of extraneous tissue and placed in a multidish containing 0.5 ml preparation medium at 37° C. […]
as §2

## C=C(C)C[S@+]([O-])C[C@@H](C)[C@H]1CC[C@H]2[C@@H]3CC=C4C(C)(C)[C@@H](O)CC[C@]4(C)[C@H]3CC[C@]12C [Example 1a, [3β,20S,(21R)]-4,4,20-Trimethyl-21-[(2-methyl-2-propenyl)sulfinyl]pregn-5-en-3-ol]
Denuded oocytes (DO) [1]; compound 5 μM
  % GVBD DO assay exp.(control): 3(12) %
Denuded oocytes (DO) [2]
  % GVBD DO assay exp.(control): 14(84) %
[3]; compound 1.0 μM
  % GVBD CEO assay exp.(control): 9(96)^3%

## C[C@H](C[S@@+]([O-])c1ccccc1)[C@H]1CC[C@H]2[C@@H]3CC=C4C(C)(C)[C@@H](O)CC[C@]4(C)[C@H]3CC[C@]12C [Example 3a, [3β,20S,(21R)]-4,4,20-Trimethyl-21-(phenylsulfinyl)pregn-5-en-3-ol]
Denuded oocytes (DO) [1]; compound 5 μM
  % GVBD DO assay exp.(control): 4(12) %
Denuded oocytes (DO) [2]
  % GVBD DO assay exp.(control): 4(84) %
[3]; compound 1.0 μM
  % GVBD CEO assay exp.(control): 34(96)^3%

## CC(C)=CCC[C@@H](C)[C@H]1CC=C2C3=C(CC[C@@]21C)[C@@]1(C)CC[C@H](O)C(C)(C)[C@@H]1CC3 [FF-Mas, (3β,5α,20R)-4,4-dimethylcholesta-8,14,24-trien-3-ol, reference compound]
Denuded oocytes (DO) [1]; compound 10 μM
  % GVBD DO assay exp.(control): 84(7) %

## CC(C)=CC[C@H](O)[C@@H](C)[C@H]1CC=C2C3=C(CC[C@@]21C)[C@@]1(C)CC[C@H](O)C(C)(C)[C@@H]1CC3 [22S-hydroxy-FF-Mas, (3β,5α,20S,22S)-4,4-dimethylcholesta-8,14,24-triene-3,22-diol, reference compound]
Denuded oocytes (DO) [1]; compound 5 μM
  % GVBD DO assay exp.(control): 97(2) %

## CC(C)CC[C@@H](O)[C@@H](C)[C@H]1CC[C@H]2[C@@H]3CC=C4C[C@@H](O)CC[C@]4(C)[C@H]3CC[C@]12C [22R-hydroxycholesterol, (3β,20S,22R)-cholest-5-en-3-ol, reference compound]
Denuded oocytes (DO) [2]
  % GVBD DO assay exp.(control): 38(89) %
[3]; compound 2.5 μM
  % GVBD CEO assay exp.(control): 52(89)^4%
